# According to patent US8178506B2, “Oligomeric compounds and compositions for use in modulation of small non-coding RNAs” (Regulus Therapeutics Inc., priority 2003, dated 2012):
# In the oligonucleotide strings, read from the 5' end, every base follows the letter of its sugar. An asterisk marks phosphorothioate; unmarked linkages are phosphodiester. Other units and linkages are bracketed, terminal groups are in braces. A string of capitals states the bases alone. e = 2'-O-(2-methoxyethyl) (MOE); [5mC] = 5-methylcytosine
# How the values were obtained:
# ob/ob mice = test: ob/ob mice: plasma parameters, food consumption, marker gene mRNA; type: in vivo, mouse; settings: ob/ob mice
# Description: Leptin is a hormone produced by fat cells that regulates appetite. Deficiencies in this hormone in both humans and non-human animals leads to obesity. ob/ob mice have a mutation in the leptin gene which results in obesity and hyperglycemia. As such, these mice are a useful model for the investigation of obesity and diabetes and treatments designed to treat these conditions. ob/ob mice have higher circulating levels of insulin and are less hyperglycemic than db/db mice, which harbor a mutation in the leptin receptor. In accordance with the present invention, the oligomeric compounds of the invention are tested in the ob/ob model of obesity and diabetes.
# Seven-week old male C57B1/6J-Lep ob/ob mice (Jackson Laboratory, Bar Harbor, Me.) are fed a diet with a fat content of 10-15% and are subcutaneously injected with the oligomeric compounds of the invention or a control compound at a dose of 25 mg/kg two times per week for 4 weeks. Saline-injected animals, leptin wildtype littermates (i.e. lean littermates) and ob/ob mice fed a standard rodent diet serve as controls. After the treatment period, mice are sacrificed and target levels are evaluated in liver, brown adipose tissue (BAT) and white adipose tissue (WAT). RNA isolation and target RNA expression level quantitation are performed as described by other examples herein.
# To assess the physiological effects resulting from modulation of target, the ob/ob mice are evaluated at the end of the treatment period for serum lipids, serum free fatty acids, serum cholesterol (CHOL), liver triglycerides, fat tissue triglycerides and liver enzyme levels. Hepatic steatosis, or clearing of lipids from the liver, is assessed by measuring the liver triglyceride content. Hepatic steatosis is assessed by routine histological analysis of frozen liver tissue sections stained with oil red O stain, which is commonly used to visualize lipid deposits, and counterstained with hematoxylin and eosin, to visualize nuclei and cytoplasm, respectively.
# The effects of target modulation on glucose and insulin metabolism are evaluated in the ob/ob mice treated with the oligomeric compounds of the invention. Plasma glucose is measured at the start of the treatment and after 2 weeks and 4 weeks of treatment. Plasma insulin is similarly measured at the beginning of the treatment, and following at 2 weeks and at 4 weeks of treatment. Glucose and insulin tolerance tests are also administered in fed and fasted mice. Mice receive intraperitoneal injections of either glucose or insulin, and the blood glucose and insulin levels are measured before the insulin or glucose challenge and at 15, 20 or 30 minute intervals for up to 3 hours.
# The ob/ob mice that receive treatment are evaluated at the end of the treatment period for the effects of target modulation on the expression of genes that participate in lipid metabolism, cholesterol biosynthesis, fatty acid oxidation, fatty acid storage, gluconeogenesis and glucose metabolism. These genes include, but are not limited to, HMG-CoA reductase, acetyl-CoA carboxylase 1 and acetyl-CoA carboxylase 2, camitine palmitoyltransferase I and glycogen phosphorylase, glucose-6-phosphatase and phosphoenolpyruvate carboxykinase 1, lipoprotein lipase and hormone sensitive lipase. mRNA levels in liver and white and brown adipose tissue are quantitated by real-time PCR as described in other examples herein, employing primer/probe sets that are generated using published sequences of each gene of interest.
# As described herein, leptin-deficient (ob/ob) mice, leptin receptor-deficient (db/db) mice and diet-induced obesity (DIO) mice are used to model obesity and diabetes. In accordance with the present invention, oligomeric compounds targeting mir-143, mir-131 (also known as mir-9) and mir-203 were tested in the ob/ob and db/db models. […]
# DIO mice = test: Diet-induced obesity (DIO) mice; type: in vivo; settings: for insulin levels: two and four week time points, vs saline
# Experimental: As described, supra, the C57BL/6 mouse strain is reported to be susceptible to hyperlipidemia-induced atherosclerotic plaque formation, and when these mice are fed a high-fat diet, they develop diet-induced obesity (DIO). Accordingly, the DIO mouse model is useful for the investigation of obesity and development of agents designed to treat these conditions. In one embodiment of the present invention, oligomeric compounds targeting miRNAs were tested in the DIO model. Normal C57/BL6 male mice were fed a high fat diet (40% fat, 41% carbohydrate, 18% protein) for 12 weeks before the study began. DIO mice were then randomized by weight and insulin values. Initial body fat composition was determined by Dual X-ray Absorptiometry (DEXA) Scan. DIO mice were then subcutaneously injected with oligomeric compounds of the invention at a dose of 25 mg/kg, twice weekly. DIO mice were treated with oligomeric compounds ISIS Numbers 327901 and 340927 targeting mir-143, ISIS Numbers 327892 and 340926 targeting mir-131/mir-9, ISIS Numbers 327878 and ISIS Number 345349 targeting mir-203, and ISIS Numbers 327889 and 340925, targeting mir-23b. […] DEXA scans were also performed at weeks 0, 3 and 5 after treatment with the oligomeric compounds to assess the fat mass to lean mass ratio. The effects of target inhibition on levels of plasma glucose and insulin, liver transaminases, cholesterol and triglycerides, were also assessed weekly by tail bleed, and after the treatment period, mice were sacrificed and liver and kidney heart, as well as white adipose tissue (WAT) tissues collected. The mRNA expression levels of the Glut4, aP2, HSL and PPARγ marker genes are also assessed. […] Furthermore, some improvement in body composition (a reduction in body weight and fat mass) was observed.
# mir-15a miRNA = test: pGL3-mir-15a sensor luciferase assay in HeLa cells; type: cell-based, human; settings: for Relative luciferase activity: pGL3-mir-15a sensor-expressing HeLa cells
# Description: In order to assess the ability of miRNAs to bind predicted miRNA binding sites and regulate the expression of the luciferase reporter, in some embodiments, expression systems based on the pGL3-Control (Promega Corp., Madison Wis.) reporter vector and comprising either a mir-15a, mir-21, or a mir-23b miRNA binding site were developed and used in transient transfections of HeLa cells to determine whether the endogenous mir-15a, mir-21, or mir-23b miRNAs, respectively, could repress luciferase reporter gene expression.
# The pGL3-mir-15a sensor plasmid was created by cloning the sequence ([…]; SEQ ID NO: 369), complementary to the mir-15a miRNA, into the Xba site of the pGL3-Control plasmid, placing the potential miRNA-binding site in the 3′UTR of the luciferase reporter. This reporter plasmid was used to transfect HeLa cells and it was observed that the endogenous mir-15a miRNA was able to inhibit luciferase expression from the pGL3-mir-15a sensor plasmid. Thus, to further evaluate the ability of the mir-15a miRNA to bind this target site encoded by the pGL3-mir-15a sensor plasmid, and to assess the ability of oligomeric compounds to interfere with mir-15a-mediated silencing, pGL3-mir-15a sensor-expressing HeLa cells were treated with varying concentrations (3-, 10- or 30 nM) of the following oligomeric compounds: ISIS Number 327951 (SEQ ID NO: 369) is a uniform 2′-MOE compound targeting the mature mir-15a-1 miRNA. ISIS Numbers 356213 (SEQ ID NO: 878), 356215 (SEQ ID NO: 879), 356216 (SEQ ID NO: 880), 356218 (SEQ ID NO: 881), 356221 (SEQ ID NO: 882), 356227 (SEQ ID NO: 883) and 356229 (SEQ ID NO: 884) are phosphorothioate, uniform 2′-MOE oligomeric compounds designed and synthesized to target the entire length of the mir-15a pri-miRNA molecule (described in detail in Example 28, below). […] The data presented in Table 42 are the average of three trials and are presented as percent untreated control (luciferase plasmid only, not treated with oligomeric compound) luciferase expression, normalized to pRL-CMV levels.
# mir-15a pri-miRNA = mir-15a pri-miRNA expression in T47D cells (real-time RT-PCR); type: cell-based, human
# Description: The gapmer oligomeric compounds targeting the mir-15b and mir-15-a-1 mature miRNAs described above were also transfected into T47D cells according to standard procedures. In addition, uniform 2′-MOE and 2′-MOE gapmer oligomeric compounds targeting the mature mir-15a-1 and mir-15b miRNAs were also transfected into T47D cells, for analysis of their effects on mir-15a-1 and mir-15b pri-miRNA levels. The oligomeric compounds ISIS Number 327927 (SEQ ID NO: 345), a uniform 2′-MOE compound and ISIS Number 345391 (SEQ ID NO: 345), a 2′-MOE 5-10-7 gapmer compound, both target mir-15b. The oligomeric compounds ISIS Number 327951 (SEQ ID NO: 369), a uniform 2′-MOE compound, and ISIS Number 345411 (SEQ ID NO: 369), a 2′-MOE 5-10-7 gapmer compound, both target mir-15a-1. Oligomeric compounds ISIS Number 129686 ([…]; SEQ ID NO: 901), and ISIS Number 129691 ([…]; SEQ ID NO:902), both universal scrambled controls, as well as ISIS Number 116847 ([…]; SEQ ID NO: 844) targeting an unrelated gene, PTEN, were used as negative controls. ISIS Numbers 129686, 129691, and 116847 are phosphorothiated 2′-MOE 5-10-5 gapmers, and all cytosines are 5-methylcytosines. T47D cells (seeded in 12-well plates) were treated with these oligomeric compounds, and RNA was isolated from the treated cells by lysing in 1 mL TRIZOL™ (Invitrogen) and total RNA was prepared using the manufacturer's recommended protocols. To assess the effects of these compounds on expression of the mir-15a or mir-15b pri-miRNA molecules, real-time RT-PCR analysis was performed using either the primer/probe set specific for the mir-15a pri-miRNA molecule described above, or a primer probe set specific for the mir-15b pri-miRNA molecule: ISIS 339320 ([…]; SEQ ID NO: 903) was used as the forward primer for the mir-15b pri-miRNA, ISIS 339321 ([…] ACTGT; SEQ ID NO: 904) was used as the reverse primer for the mir-15b pri-miRNA, and ISIS 339322 ([…]; SEQ ID NO: 905) was used as the probe. Total RNA was quantified using RiboGreen™ RNA quantification reagent (Molecular Probes, Inc. Eugene, Oreg.), expression levels observed for each target were normalized to 5.8S rRNA, and values are expressed relative to the untreated control. Inhibition of expression of the mir15a or mir-15b pri-miRNA molecules upon treatment with these oligomeric compounds is was assessed and expressed as a percentage of RNA levels in untreated control cells.
# Using the real-time RT-PCR methods described, the expression levels of the mir-15a pri-miRNA were compared in T47D cells treated with the nested series of uniform 2′-MOE oligomeric compounds, targeting and spanning the entire length of the mir-15a pri-miRNA. The region encompassing the mir-15a primary transcript (the complement of nucleotides 31603159 to 31603468 of GenBank Accession number NT—024524.13; AAATAATTATG […]) is incorporated herein as SEQ ID NO: 906. ISIS Number 356215 (SEQ ID NO: 879) targets a region flanking and immediately 5′ to the predicted 5′ Drosha cleavage site in the mir-15a pri-miRNA. ISIS Number 356218 (SEQ ID NO: 881) targets aregion in the loop of the mir-15a pri-miRNA. ISIS 356227 (SEQ ID NO: 883) targets a region flanking and immediately 3′ to the predicted 3′ Drosha cleavage site in the mir-15a pri-miRNA. Additionally, oligomeric compound ISIS 327951 (SEQ ID NO: 369), a uniform 2′-MOE compound targeting the mature mir-15a-1 miRNA, was tested for comparison. Oligomeric compounds ISIS 327901 (SEQ ID NO: 319) targeting the mature mir-143 miRNA; ISIS 129690, ([…]; SEQ ID NO: 907), a phosphorothioate 5-10-5 MOE gapmer used as a universal scrambled control; and ISIS 116847 ([…]; SEQ ID NO: 844), a uniform 5-10-52′-MOE gapmer targeting an unrelated gene, PTEN, were used as negative controls. Using the transfection methods previously described, T47D cells were treated with 100 nM of each of these oligomeric compounds. […]
# [1] = 25 mg/kg s.c. two times per week, 6 weeks
substance,measurement,setting,value
ACTTTCGGTTATCTAGCTTTA [ISIS 340926] (chemistry not given here) [5-10-6 gapmer; targets mir-131/mir-9],plasma glucose levels (fed),ob/ob mice; [1],reduced beginning at approximately four weeks after the start of treatment
same,plasma triglyceride levels,ob/ob mice; [1],reduced over time
same,"plasma glucose levels, fasted state",ob/ob mice; day 19,significant reductions in plasma glucose levels
same,"liver toxicity (plasma transaminase levels, weekly)","DIO mice; 25 mg/kg s.c. twice weekly, 25 mg/kg",did not cause significant increases in liver toxicity
same,insulin levels,DIO mice,effective at reducing insulin levels
"CTAGTGGTCCTAAACATTTCAC (chemistry not given here) [ISIS 345349, 5-10-7 gapmer; targets mir-203]",plasma triglyceride levels,ob/ob mice; [1],reduced over time
same,insulin levels,DIO mice,effective at reducing insulin levels
"CACAAACCATTATGTGCTGCTA (chemistry not given here) [ISIS 327951, uniform 2′-MOE PS; targets mir-15a-1]",luciferase activity from the pGL3-mir-15a sensor plasmid,"mir-15a miRNA; HeLa, 3-, 10- or 30 nM",blocked the inhibitory effect of mir-15a
same,levels of the mir-15a pri-miRNA molecule,mir-15a pri-miRNA; 100 nM,stimulate an increase in levels of the mir-15a pri-miRNA molecule
356213 (eT*eA*eT*eA*eA*e[5mC]*eA*eT*eT*eG*eA*eT*eG*eT*eA*eA*eT*eA*eT*eG) [compound 356213],Relative luciferase activity,mir-15a miRNA; 3 nM,101.2
same,Relative luciferase activity,mir-15a miRNA; 10 nM,80.5
same,Relative luciferase activity,mir-15a miRNA; 30 nM,109.9
same,mir-15a pri-miRNA expression % UTC,mir-15a pri-miRNA; real-time RT-PCR,171 % UTC
